Our source for the inhibition values is patent US9302988B2, “Fluoromethyl-substituted pyrrole carboxamides” (GRÜNENTHAL GMBH, priority 2012, dated 2016).

Structures are written as SMILES.

The target in this test is T1, Human CaV2.2 channels (Homo sapiens, UniProt Q00975).
T1 construct: expressed in transfected cells
T1 sequence (Q00975 whole entry): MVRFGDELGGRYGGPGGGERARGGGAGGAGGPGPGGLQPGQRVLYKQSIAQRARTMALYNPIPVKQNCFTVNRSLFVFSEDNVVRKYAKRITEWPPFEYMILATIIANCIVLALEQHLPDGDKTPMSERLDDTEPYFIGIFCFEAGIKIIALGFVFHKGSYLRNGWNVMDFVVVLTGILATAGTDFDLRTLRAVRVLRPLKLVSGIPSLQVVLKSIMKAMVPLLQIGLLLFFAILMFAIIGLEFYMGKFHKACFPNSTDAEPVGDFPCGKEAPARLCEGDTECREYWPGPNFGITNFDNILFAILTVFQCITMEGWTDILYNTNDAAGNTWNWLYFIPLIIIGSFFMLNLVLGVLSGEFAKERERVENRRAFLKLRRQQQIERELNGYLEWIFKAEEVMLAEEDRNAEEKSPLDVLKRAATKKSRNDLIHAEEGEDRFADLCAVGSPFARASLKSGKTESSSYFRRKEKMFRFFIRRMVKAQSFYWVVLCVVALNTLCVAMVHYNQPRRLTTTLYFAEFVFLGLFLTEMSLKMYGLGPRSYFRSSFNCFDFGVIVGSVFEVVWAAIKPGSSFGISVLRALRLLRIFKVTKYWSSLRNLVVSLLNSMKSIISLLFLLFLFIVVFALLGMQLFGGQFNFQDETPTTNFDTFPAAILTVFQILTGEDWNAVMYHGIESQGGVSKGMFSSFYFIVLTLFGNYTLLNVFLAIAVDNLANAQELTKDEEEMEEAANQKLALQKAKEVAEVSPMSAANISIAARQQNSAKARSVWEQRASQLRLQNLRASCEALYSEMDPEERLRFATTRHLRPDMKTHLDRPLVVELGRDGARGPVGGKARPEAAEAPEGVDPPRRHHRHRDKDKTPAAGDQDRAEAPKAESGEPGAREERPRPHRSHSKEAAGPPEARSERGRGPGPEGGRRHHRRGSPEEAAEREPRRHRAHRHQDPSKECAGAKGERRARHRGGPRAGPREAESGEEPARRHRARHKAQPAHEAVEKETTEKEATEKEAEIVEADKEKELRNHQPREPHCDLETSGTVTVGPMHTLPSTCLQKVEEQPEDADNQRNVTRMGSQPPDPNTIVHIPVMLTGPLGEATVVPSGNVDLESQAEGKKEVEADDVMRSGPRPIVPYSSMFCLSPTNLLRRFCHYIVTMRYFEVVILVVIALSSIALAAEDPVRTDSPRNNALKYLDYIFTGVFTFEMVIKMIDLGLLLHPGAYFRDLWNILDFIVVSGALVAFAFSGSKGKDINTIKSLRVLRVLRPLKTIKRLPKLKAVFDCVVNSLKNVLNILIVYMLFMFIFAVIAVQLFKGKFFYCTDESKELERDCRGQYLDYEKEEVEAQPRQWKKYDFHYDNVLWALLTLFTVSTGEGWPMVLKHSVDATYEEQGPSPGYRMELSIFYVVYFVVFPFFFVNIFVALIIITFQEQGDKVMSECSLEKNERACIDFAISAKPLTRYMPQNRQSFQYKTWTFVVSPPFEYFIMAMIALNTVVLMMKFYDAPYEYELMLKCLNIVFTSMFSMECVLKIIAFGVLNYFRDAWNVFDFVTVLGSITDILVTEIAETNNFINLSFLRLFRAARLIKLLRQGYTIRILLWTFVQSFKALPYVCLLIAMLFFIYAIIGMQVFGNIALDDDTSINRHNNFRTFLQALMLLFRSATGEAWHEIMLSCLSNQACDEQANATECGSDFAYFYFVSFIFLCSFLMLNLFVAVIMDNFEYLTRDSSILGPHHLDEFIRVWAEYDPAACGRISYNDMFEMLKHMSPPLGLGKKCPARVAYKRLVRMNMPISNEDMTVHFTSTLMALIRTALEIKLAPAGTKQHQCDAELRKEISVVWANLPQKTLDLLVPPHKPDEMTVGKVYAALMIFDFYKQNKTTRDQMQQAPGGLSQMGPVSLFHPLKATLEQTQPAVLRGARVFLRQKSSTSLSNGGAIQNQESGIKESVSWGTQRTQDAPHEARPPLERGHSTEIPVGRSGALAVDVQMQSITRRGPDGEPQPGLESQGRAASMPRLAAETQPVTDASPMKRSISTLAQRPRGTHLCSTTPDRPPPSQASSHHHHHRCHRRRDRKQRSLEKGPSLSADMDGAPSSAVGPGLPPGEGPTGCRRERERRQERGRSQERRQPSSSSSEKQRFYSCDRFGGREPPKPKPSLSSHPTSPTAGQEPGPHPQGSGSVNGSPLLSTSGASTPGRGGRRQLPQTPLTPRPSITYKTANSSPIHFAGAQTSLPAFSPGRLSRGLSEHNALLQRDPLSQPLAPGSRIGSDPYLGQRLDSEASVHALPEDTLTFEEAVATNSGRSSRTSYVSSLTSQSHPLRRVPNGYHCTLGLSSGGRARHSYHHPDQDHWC
T1 sequence (P54289 25-1103, further chain): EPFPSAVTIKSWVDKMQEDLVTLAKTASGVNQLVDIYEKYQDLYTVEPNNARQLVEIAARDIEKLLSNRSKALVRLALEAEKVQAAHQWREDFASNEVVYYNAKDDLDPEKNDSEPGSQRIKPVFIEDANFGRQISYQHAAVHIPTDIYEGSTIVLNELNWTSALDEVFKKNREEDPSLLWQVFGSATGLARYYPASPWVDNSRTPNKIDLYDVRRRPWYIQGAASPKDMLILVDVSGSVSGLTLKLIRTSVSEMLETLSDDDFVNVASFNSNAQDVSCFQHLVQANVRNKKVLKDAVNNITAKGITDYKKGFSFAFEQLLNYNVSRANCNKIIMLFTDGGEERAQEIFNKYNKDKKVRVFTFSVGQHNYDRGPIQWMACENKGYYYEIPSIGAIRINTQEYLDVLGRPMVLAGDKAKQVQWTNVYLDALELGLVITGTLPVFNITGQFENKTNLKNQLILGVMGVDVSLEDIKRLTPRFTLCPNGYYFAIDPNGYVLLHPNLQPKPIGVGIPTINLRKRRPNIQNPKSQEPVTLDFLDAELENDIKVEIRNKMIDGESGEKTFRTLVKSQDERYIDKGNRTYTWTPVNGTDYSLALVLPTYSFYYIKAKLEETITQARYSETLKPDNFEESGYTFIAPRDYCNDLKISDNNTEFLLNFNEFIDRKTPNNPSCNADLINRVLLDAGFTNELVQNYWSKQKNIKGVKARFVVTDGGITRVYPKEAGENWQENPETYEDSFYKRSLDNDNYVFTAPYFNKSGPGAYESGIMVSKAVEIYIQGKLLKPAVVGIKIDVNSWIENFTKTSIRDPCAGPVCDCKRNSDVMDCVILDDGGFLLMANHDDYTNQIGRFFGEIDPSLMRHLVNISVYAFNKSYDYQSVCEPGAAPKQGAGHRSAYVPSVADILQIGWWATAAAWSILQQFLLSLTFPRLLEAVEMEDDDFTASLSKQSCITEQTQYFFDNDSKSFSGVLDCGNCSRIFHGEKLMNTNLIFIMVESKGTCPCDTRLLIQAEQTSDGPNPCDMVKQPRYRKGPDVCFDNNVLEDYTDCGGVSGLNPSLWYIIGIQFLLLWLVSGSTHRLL
T1 sequence (P54284 whole entry, further chain): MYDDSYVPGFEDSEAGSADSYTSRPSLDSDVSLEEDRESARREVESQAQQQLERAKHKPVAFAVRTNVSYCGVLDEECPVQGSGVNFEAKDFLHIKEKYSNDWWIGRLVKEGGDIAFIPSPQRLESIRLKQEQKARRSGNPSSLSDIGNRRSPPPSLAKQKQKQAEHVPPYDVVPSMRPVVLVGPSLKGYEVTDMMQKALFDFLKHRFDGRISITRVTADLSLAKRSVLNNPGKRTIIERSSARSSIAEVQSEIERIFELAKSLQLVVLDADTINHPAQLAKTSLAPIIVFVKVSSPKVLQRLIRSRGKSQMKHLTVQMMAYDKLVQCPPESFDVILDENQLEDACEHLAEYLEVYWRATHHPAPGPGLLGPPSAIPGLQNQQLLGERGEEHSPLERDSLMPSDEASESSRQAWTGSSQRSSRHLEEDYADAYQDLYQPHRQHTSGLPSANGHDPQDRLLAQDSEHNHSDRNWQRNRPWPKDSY
In words: Fluorescent assay for CaV2.2 channels using potassium depolarization to induce channel opening (FLIPR, Fluo-4). In kind it is cell-based. Conditions: 3 μM test compound, 30 mM KCl, HEK293 cells stably expressing human CaV2.2; read-out: %-Inhib (CaV2.2) @3 μM @30 mM KCl. An excerpt: In the process, the Ca^2+ influx is quantified in the FLIPR assay with the aid of a Ca^2+-sensitive dye (type Fluo-4, Molecular Probes Europe BV, Leiden, the Netherlands) in a fluorescent imaging plate reader (FLIPR 3, Molecular Devices, Sunnyvale, USA), as described hereinafter.
2.1 Fluorescent Assay for CaV2.2 Channels Using Potassium Depolarization to Induce Channel Opening
Human CaV2.2 channels were stably expressed in HEK293 cells together with alpha2-delta and beta subunits of voltage gated calcium channels. In addition, an inwardly rectifying potassium channel (Kir2.3) was stably expressed in these cells to augment control of the cell membrane potential by the concentration of extracellular potassium ions. Raise of the extracellular potassium concentration leads to depolarization of the membrane potential and thus regulates the voltage dependent state of CaV2.2 channels. For preparation, cells were seeded in black poly-D-lysine coated 96-well plates (Becton Dickinson, Biocoat 4640) in 100 μl medium [500 ml DMEM/F-12 plus Glutamax (Invitrogen 31331-093) plus 5.5 ml MEM NEAA 100× (Invitrogen 11140-035) plus 50 ml FBS decomplemented (Invitrogen 10270-106) plus 4.4 ml Geneticin (Invitrogen 10131-027) plus 1.1 ml Hygromycin B (Invitrogen 10687-010) plus 68.75 μl Puromycin (Clontech, 631306)] at a cell density of 45.000 cells per well.
Plates were incubated at 37° C. (5% CO2) for 20 to 23 hours. On the day of experiment medium was discarded and cells were loaded with Fluo 4 by addition of 100 μl of basic assay buffer (10 mM HEPES, 30 mM KCl, 120 mM NaCl, 0.8 mM CaCl2, 1.7 mM MgCl2, 10 mM Glucose, 0.1% BSA. pH 7.4) containing 2 μM Fluo 4 (Molecular Probes; F-14201), 0.01% pluronic acid (Molecular Probes; P-6866) and 2.5 mM probenecid (Molecular Probes; P36400). Cells were incubated in the dark at 25° C. for 60 min. Then the dye containing buffer was discarded and 100 μl basic assay buffer was added. Subsequently cells were incubated in the dark at 25° C. for 15 min. 25 μl of basic assay buffer with or without test compound were added and cells were incubated again in the dark at 25° C. for 15 min. Fluorescence intensity was measured on a FLIPR 3 instrument (Molecular Devices Corp., Sunnyvale, Calif.) with excitation at 480 nm and emission at 535 nm. After continuously reading fluorescence for 30 sec, 50 μl of basic assay buffer containing 210 mM KCl (NaCl omitted) were added for depolarization. Peak fluorescent signal intensity was determined and the amplitude of the peak signal, normalized to base line, was used to measure channel inhibition by test compounds.
Turning to `Cc1c(-c2ccc(F)cc2)c(C(=O)N2CC(F)(F)C2)n(Cc2ccccc2)c1C(F)(F)F` [SC-95, [1-Benzyl-3-(4-fluorophenyl)-4-methyl-5-(trifluoromethyl)-1H-pyrrol-2-yl]-(3,3-difluoro-azetidin-1-yl)-methanone], the inhibition at 3 µM was 75 to 95%.
On to `O=C1CN(C(=O)c2c(-c3ccc(Cl)cc3)cc(C(F)(F)F)n2Cc2ccccc2)CCN1` [SC-66, 4-[1-Benzyl-3-(4-chlorophenyl)-5-(trifluoromethyl)-1H-pyrrole-2-carbonyl]-piperazin-2-one], for which the inhibition at 3 µM lay within 75 to 95%.
The result for `CN(CCN1CCCC1)CC(C)(C)CN(C)C(=O)c1c(-c2ccc(Cl)cc2)cc(C(F)(F)F)n1Cc1ccccc1` [SC-203, 1-Benzyl-3-(4-chlorophenyl)-N-[2,2-dimethyl-3-[methyl-(2-pyrrolidin-1-yl-ethyl)-amino]-propyl]-N-methyl-5-(trifluoromethyl)-1H-pyrrole-2-carboxylic acid amide] reads above 95%; that for `Cc1c(-c2ccc(Cl)cc2)c(C(=O)N2CC(F)(F)C2)n(-c2ccc(Cl)cc2)c1C(F)(F)F` [SC-44, [1,3-Bis(4-chlorophenyl)-4-methyl-5-(trifluoromethyl)-1H-pyrrol-2-yl]-(3,3-difluoro-azetidin-1-yl)-methanone], 75 to 95%; that for `CN(C(=O)c1c(-c2ccc(Cl)cc2)cc(C(F)(F)F)n1Cc1ccccc1)C1CCS(=O)(=O)C1` (stereo not shown) [SC-83, 1-Benzyl-3-(4-chlorophenyl)-N-(1,1-dioxo-thiolan-3-yl)-N-methyl-5-(trifluoromethyl)-1H-pyrrole-2-carboxylic acid amide], above 95%.
The result for `O=C(c1c(-c2ccc(Cl)cc2)cc(C(F)(F)F)n1Cc1ccccc1)N1CC(F)(F)C1` [SC-94, [1-Benzyl-3-(4-chlorophenyl)-5-(trifluoromethyl)-1H-pyrrol-2-yl]-(3,3-difluoro-azetidin-1-yl)-methanone] reads 75 to 95%; that for `Cc1c(-c2ccc(F)c(Cl)c2)c(C(=O)N(C)C2CC2)n(Cc2ccccc2)c1C(F)(F)F` [SC-254, 1-Benzyl-3-(3-chloro-4-fluoro-phenyl)-N-cyclopropyl-N,4-dimethyl-5-(trifluoromethyl)-1H-pyrrole-2-carboxylic acid amide], 75 to 95%.
As for `Cc1c(-c2ccc(Cl)cc2F)c(C(=O)N(C)CCS(C)(=O)=O)n(Cc2ccccc2)c1C(F)(F)F` [SC-64, 1-Benzyl-3-(4-chloro-2-fluoro-phenyl)-N,4-dimethyl-N-(2-methylsulfonyl-ethyl)-5-(trifluoromethyl)-1H-pyrrole-2-carboxylic acid amide], the figure is above 95%; as for `CN(CC(C)(C)N1CCOCC1)C(=O)c1c(-c2ccc(Cl)cc2)cc(C(F)(F)F)n1Cc1ccccc1` [SC-85, 1-Benzyl-3-(4-chlorophenyl)-N-methyl-N-(2-methyl-2-morpholin-4-yl-propyl)-5-(trifluoromethyl)-1H-pyrrole-2-carboxylic acid amide], above 95%; as for `Cc1c(-c2ccc(Cl)cc2)c(C(=O)N(C)CCC2CCCO2)n(Cc2ccccc2)c1C(F)(F)F` (stereo not shown) [SC-133, 1-Benzyl-3-(4-chlorophenyl)-N,4-dimethyl-N-(2-tetrahydro-furan-2-yl-ethyl)-5-(trifluoromethyl)-1H-pyrrole-2-carboxylic acid amide], above 95%.
Regarding `Cc1c(-c2ccc(OC(F)(F)F)cc2)c(C(=O)N2CCOC(C)(C)C2)n(Cc2ccccc2)c1C(F)(F)F` [SC-242, [1-Benzyl-4-methyl-5-(trifluoromethyl)-3-[4-(trifluoromethyloxy)-phenyl]-1H-pyrrol-2-yl]-(2,2-dimethyl-morpholin-4-yl)-methanone], the inhibition at 3 µM was in the range of 75 to 95%.
Take `Cc1c(-c2ccc(Cl)cc2)c(C(=O)N2CC(F)(F)C2)n(Cc2ccccc2)c1C(F)(F)F` [SC-93, [1-Benzyl-3-(4-chlorophenyl)-4-methyl-5-(trifluoromethyl)-1H-pyrrol-2-yl]-(3,3-difluoro-azetidin-1-yl)-methanone]: the inhibition at 3 µM is 75 to 95%.
As for `CC1(C)CN(C(=O)c2c(-c3ccc(Cl)cc3)cc(C(F)(F)F)n2Cc2ccccc2)CCN1` [SC-82, [1-Benzyl-3-(4-chlorophenyl)-5-(trifluoromethyl)-1H-pyrrol-2-yl]-(3,3-dimethyl-piperazin-1-yl)-methanone], the figure is 75 to 95%; as for `Cc1c(-c2ccc(Cl)cc2F)c(C(=O)N(C)C2CCS(=O)(=O)CC2)n(Cc2ccccc2)c1C(F)(F)F` [SC-160, 1-Benzyl-3-(4-chloro-2-fluoro-phenyl)-N-(1,1-dioxo-thian-4-yl)-N,4-dimethyl-5-(trifluoromethyl)-1H-pyrrole-2-carboxylic acid amide], above 95%; as for `Cc1c(-c2ccc(Cl)cc2)c(C(=O)NC2CCOCC2)n(Cc2ccccc2)c1C(F)(F)F` [SC-10, 1-Benzyl-3-(4-chlorophenyl)-4-methyl-N-tetrahydro-pyran-4-yl-5-(trifluoromethyl)-1H-pyrrole-2-carboxylic acid amide], 75 to 95%.
As for `CN(CCS(C)(=O)=O)C(=O)c1c(-c2ccc(Cl)cc2)cc(C(F)(F)F)n1Cc1ccccc1` [SC-67, 1-Benzyl-3-(4-chlorophenyl)-N-methyl-N-(2-methylsulfonyl-ethyl)-5-(trifluoromethyl)-1H-pyrrole-2-carboxylic acid amide], the figure is above 95%.
As for `O=C1CN(C(=O)c2c(-c3ccc(Cl)cc3F)cc(C(F)(F)F)n2Cc2ccccc2)CCN1` [SC-89, 4-[1-Benzyl-3-(4-chloro-2-fluoro-phenyl)-5-(trifluoromethyl)-1H-pyrrole-2-carbonyl]-piperazin-2-one], the figure is 75 to 95%.
In the case of `Cc1c(-c2ccc(F)cc2)c(C(=O)N2CCOCC2)n(Cc2ccccc2)c1C(F)(F)F` [SC-101, [1-Benzyl-3-(4-fluorophenyl)-4-methyl-5-(trifluoromethyl)-1H-pyrrol-2-yl]-morpholin-4-yl-methanone], the inhibition at 3 µM was above 95%.
As for `CN(CC(C)(C)C)C(=O)c1c(-c2ccc(Cl)cc2)c(S(C)(=O)=O)c(C(F)(F)F)n1Cc1ccccc1` [SC-259, 1-Benzyl-3-(4-chlorophenyl)-N-(2,2-dimethyl-propyl)-N-methyl-4-methylsulfonyl-5-(trifluoromethyl)-1H-pyrrole-2-carboxylic acid amide], the figure is 75 to 95%; as for `Cc1c(-c2ccc(OC(F)(F)F)cc2F)c(C(=O)N2CCOCC2)n(Cc2ccccc2)c1C(F)(F)F` [SC-262, (1-benzyl-3-(2-fluoro-4-(trifluoromethoxy)phenyl)-4-methyl-5-(trifluoromethyl)-1H-pyrrol-2-yl)(morpholino)methanone], 75 to 95%.
As for `CN(CC1(CO)CCC1)C(=O)c1c(-c2ccc(Cl)cc2)cc(C(F)(F)F)n1Cc1ccccc1` [SC-179, 1-Benzyl-3-(4-chlorophenyl)-N-[[1-(hydroxymethyl)-cyclobutyl]-methyl]-N-methyl-5-(trifluoromethyl)-1H-pyrrole-2-carboxylic acid amide], the figure is above 95%.
As for `Cc1c(-c2ccc(Cl)c(F)c2)c(C(=O)N2CC(F)(F)C2)n(Cc2ccccc2)c1C(F)(F)F` [SC-98, [1-Benzyl-3-(4-chloro-3-fluoro-phenyl)-4-methyl-5-(trifluoromethyl)-1H-pyrrol-2-yl]-(3,3-difluoro-azetidin-1-yl)-methanone], the figure is 40 to 75%.
